Assay results taken from ChEMBL document CHEMBL5390269, “Synthesis, anti-inflammatory activity, and conformational relationship studies of chromone derivatives incorporating amide groups” (Bioorg Med Chem Lett, 2023).

Target: T1, Interleukin-5 (Homo sapiens, UniProt P05113)
T1 sequence (P05113 whole entry): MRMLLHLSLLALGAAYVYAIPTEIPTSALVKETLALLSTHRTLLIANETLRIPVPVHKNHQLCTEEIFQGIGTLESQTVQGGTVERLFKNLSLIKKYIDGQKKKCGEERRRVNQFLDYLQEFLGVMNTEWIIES
Test: Inhibition of IL-5 (unknown origin)
Work on O=c1c(CCC(O)c2ccc(O)cc2)coc2cccc(OCC3CCCCC3)c12 (stereo unspecified) yielded an IC50 of 4 µM.

Test system: RAW264.7
Test: Anti-inflammatory activity in mouse RAW264.7 cells assessed as inhibition of LPS-stimulated NO production
Type: functional, cell-based
In the case of Cc1ccc2oc(C(=O)Nc3ccc(F)c(F)c3)cc(=O)c2c1, the EC50 is reported as 41 µM. Compound COc1cccc2oc(C(=O)Nc3ccc(Br)cc3)cc(=O)c12 has an EC50 of 378 µM. With Cc1ccc(NC(=O)c2cc(=O)c3ccccc3o2)cc1C the EC50 was 31.7 µM. Compound COc1ccc2c(=O)cc(C(=O)Nc3ccc(Cl)c(Cl)c3)oc2c1 has an EC50 of 82 µM. For COc1cc(OC)c2c(=O)cc(C(=O)Nc3ccc(C(F)(F)F)cc3)oc2c1, the EC50 was 31.7 µM. Cc1ccc(NC(=O)c2cc(=O)c3ccccc3o2)cc1Cl showed an EC50 of 30.1 µM. Work on COc1cc(OC)c2c(=O)cc(C(=O)Nc3cc(Cl)ccc3C)oc2c1 yielded an EC50 of 18.7 µM. For Cc1ccc2oc(C(=O)Nc3ccc(C)c(Cl)c3)cc(=O)c2c1, the EC50 was 80 µM. In the case of O=C(Nc1ccc(C(F)(F)F)cc1)c1cc(=O)c2ccc(Br)cc2o1, the EC50 is reported as 167 µM. In the case of Cc1ccc(NC(=O)c2cc(=O)c3ccc(Br)cc3o2)cc1C, the EC50 is reported as 821 µM. Work on COc1cc(OC)c2c(=O)cc(C(=O)Nc3ccc(Cl)c(Cl)c3)oc2c1 yielded an EC50 of 32.3 µM. COc1ccc(NC(=O)c2cc(=O)c3c(OC)cccc3o2)cc1 gave an EC50 of 191 µM. COc1cc(OC)c2c(=O)cc(C(=O)Nc3ccc(C)c(Cl)c3)oc2c1 showed an EC50 of 115 µM. COc1ccc2c(=O)cc(C(=O)Nc3ccc(Cl)c(C(F)(F)F)c3)oc2c1 showed an EC50 of 86.5 µM. Compound Cc1ccc(Cl)cc1NC(=O)c1cc(=O)c2ccccc2o1 has an EC50 of 45.3 µM. Work on CC(C)Cc1ccc(C(C)C(=O)O)cc1 (stereo unspecified) [IBUPROFEN] yielded an EC50 of 26.7 µM. In the case of Cc1ccc(NC(=O)c2cc(=O)c3ccc(Br)cc3o2)cc1Cl, the EC50 is reported as 37.9 µM. With COc1ccc(NC(=O)c2cc(=O)c3ccccc3o2)cc1 the EC50 was 42.1 µM. For Cc1ccc2oc(C(=O)Nc3ccc(Cl)c(Cl)c3)cc(=O)c2c1, the EC50 was 40.3 µM. Cc1ccc2oc(C(=O)Nc3cc(Cl)ccc3C)cc(=O)c2c1 gave an EC50 of 40.5 µM. O=C(Nc1ccc(Br)cc1)c1cc(=O)c2ccccc2o1 gave an EC50 of 41 µM. COc1cccc2oc(C(=O)Nc3ccc(C(F)(F)F)cc3)cc(=O)c12 gave an EC50 of 175 µM. COc1cccc2oc(C(=O)Nc3ccc(Cl)c(F)c3)cc(=O)c12 showed an EC50 of 83.7 µM. With Cc1ccc2oc(C(=O)Nc3ccc(Cl)c(C(F)(F)F)c3)cc(=O)c2c1 the EC50 was 40.7 µM. O=C(Nc1ccc(C(F)(F)F)cc1)c1cc(=O)c2ccccc2o1 showed an EC50 greater than 1000 µM. COc1ccc2c(=O)cc(C(=O)Nc3ccc(Br)cc3)oc2c1 gave an EC50 of 89.5 µM. O=C(Nc1ccc(F)c(F)c1)c1cc(=O)c2ccccc2o1 gave an EC50 of 91.8 µM. COc1ccc2c(=O)cc(C(=O)Nc3ccc(C)c(Cl)c3)oc2c1 showed an EC50 of 45.2 µM. Work on O=C(Nc1ccc(Br)cc1)c1cc(=O)c2ccc(Br)cc2o1 yielded an EC50 of 50 µM. Compound COc1ccc(NC(=O)c2cc(=O)c3c(OC)cc(OC)cc3o2)cc1 has an EC50 of 21.3 µM. Compound COc1cccc2oc(C(=O)Nc3ccc(Cl)c(C(F)(F)F)c3)cc(=O)c12 has an EC50 of 448 µM. COc1ccc(NC(=O)c2cc(=O)c3ccc(Br)cc3o2)cc1 gave an EC50 of 174 µM. With O=C(Nc1ccc(F)c(F)c1)c1cc(=O)c2ccc(Br)cc2o1 the EC50 was 138 µM. Compound COc1ccc2c(=O)cc(C(=O)Nc3ccc(Cl)c(F)c3)oc2c1 has an EC50 of 11.1 µM. COc1cccc2oc(C(=O)Nc3ccc(F)c(F)c3)cc(=O)c12 showed an EC50 of 208 µM. CCOc1ccc(NC(=O)c2cc(=O)c3ccccc3o2)cc1 gave an EC50 greater than 1000 µM. In the case of COc1ccc2c(=O)cc(C(=O)Nc3ccccc3C)oc2c1, the EC50 is reported as 5.33 µM.

Target: T2, Prostaglandin G/H synthase 2 (Homo sapiens, UniProt P35354)
T2 sequence (P35354 whole entry): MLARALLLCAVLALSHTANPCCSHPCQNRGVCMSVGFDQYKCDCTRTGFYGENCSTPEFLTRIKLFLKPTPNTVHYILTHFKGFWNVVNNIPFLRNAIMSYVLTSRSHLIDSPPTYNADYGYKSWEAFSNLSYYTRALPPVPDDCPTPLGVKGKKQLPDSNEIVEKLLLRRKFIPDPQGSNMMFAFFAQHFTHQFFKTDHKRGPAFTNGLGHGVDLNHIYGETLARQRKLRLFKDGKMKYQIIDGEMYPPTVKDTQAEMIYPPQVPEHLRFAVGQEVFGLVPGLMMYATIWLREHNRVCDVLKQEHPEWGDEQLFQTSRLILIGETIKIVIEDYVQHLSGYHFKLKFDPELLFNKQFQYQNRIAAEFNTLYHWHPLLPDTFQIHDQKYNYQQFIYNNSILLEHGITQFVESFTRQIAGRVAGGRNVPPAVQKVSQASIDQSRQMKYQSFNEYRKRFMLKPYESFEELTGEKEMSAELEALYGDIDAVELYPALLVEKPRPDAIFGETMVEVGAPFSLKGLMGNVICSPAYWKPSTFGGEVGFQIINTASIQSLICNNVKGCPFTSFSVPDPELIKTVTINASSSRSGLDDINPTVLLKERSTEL
Test: Inhibition of COX-2 (unknown origin)
O=C1Nc2ccccc2/C1=C/c1coc2ccccc2c1=O showed an IC50 of 0.02 µM.

Test system: not listed separately
Test: Cytotoxicity against mouse RAW264.7 cells assessed as cell growth inhibition by CCK-8 colorimetric assay
Type: toxicity, cell-based
Compound O=C(Nc1ccc(C(F)(F)F)cc1)c1cc(=O)c2ccc(Br)cc2o1 has an IC50 of 324 µM. COc1cc(OC)c2c(=O)cc(C(=O)Nc3ccc(C)c(Cl)c3)oc2c1 gave an IC50 of 48 µM. In the case of CC(C)Cc1ccc(C(C)C(=O)O)cc1 (stereo unspecified) [IBUPROFEN], the IC50 is reported as greater than 1000 µM. Cc1ccc2oc(C(=O)Nc3cc(Cl)ccc3C)cc(=O)c2c1 gave an IC50 of 38.4 µM. For O=C(Nc1ccc(Br)cc1)c1cc(=O)c2ccccc2o1, the IC50 was 24.3 µM. In the case of COc1cccc2oc(C(=O)Nc3cc(Cl)ccc3C)cc(=O)c12, the IC50 is reported as 48 µM. COc1ccc2c(=O)cc(C(=O)Nc3ccccc3C)oc2c1 gave an IC50 of 813 µM.
